The record followed here is patent US10300058B2, “Tyrosine kinase inhibitor and uses thereof” (Xuanzhu Pharma Co., Ltd., priority 2014, dated 2019).

The test system of assay [1] is H1975 cell (EGFR-T790M/L858R double mutation). Nature of the assay: In vitro cytologic activity, Celltiter-Glo, H1975 cells. It counts as cell-based, human. The following applies: for IC50: Homo sapiens, NCI-H1975, 72 h, 72 h, Celltiter-Glo; for Selectivity (A431/H1975): ratio of IC50. Here is the method: (§1) 1.1 Preparation of Cell Suspension
(§2) Culture medium was removed from culture bottle;
(§3) PBS was added to wash the cells; • pancreatin was added for digestion, and the cells were collected by centrifugation; • the cells were resuspended in a culture medium containing 10% fetal bovine serum, counted and adjusted to a concentration of 2×10^4/mL or 3×10^4/mL (cell viability must be greater than 90%); • the cell suspension was added to a 96-well plate, at 100 μL for each well, i.e., 2000/well for H1975 cell; 3000/well for A431 cell; and • the cells were cultured at 37° C. in 5% CO2 incubator overnight.
(§4) Dilution of a compound in DMSO (or water for injection) • (1) The compound was 5-fold diluted with DMSO from 10 mM to 2 mM, and then 4-fold diluted from 2 mM, to get 10 concentrations; • High control (HC, control without compound inhibition): 0.5% DMSO; • Low control (LC, control with compound inhibition): 1000 nM.
(§5) i. To each well, 99 μL growth medium containing 10% FBS was added, and then 1 μL diluted compound was added, the total volume of the well was […], and the final concentration of the compound was measured.
(§6) The test plate was left at room temperature, and equilibrated for 30 min. 80 μL culture medium was discarded. 60 μL CTG reagent (Celltiter-Glo kit) was added, and shaked for 2 min in a fast shaker, and was placed at room temperature for 10 min. The values were read by Envision instrument.

Assay [2] relates to A431 cell (wild-type EGFR gene). Nature of the assay: In vitro cytologic activity, Celltiter-Glo, A431 cells. It counts as cell-based. The following applies: Homo sapiens, A-431, 72 h. Here is the method:
as §1, §2, §3, §4, §5, §6
A general note: ATP-based viability assays read luminescence as a measure of living cells.

Another assay deals with EGFR T790M (Homo sapiens (Human), UniProt P00533, T790M). Nature of the assay: Mobility Shift Assay, in vitro enzyme-inhibiting activity, EGFR T790M. It counts as biochemical. The note with it: for IC50: Km ATP; for Selectivity (WT/T790M): ratio of IC50. Here is the method: (§7) 1. Preparation of Reagents
EGFR T790M, sequence (P00533 25-1210 T790M): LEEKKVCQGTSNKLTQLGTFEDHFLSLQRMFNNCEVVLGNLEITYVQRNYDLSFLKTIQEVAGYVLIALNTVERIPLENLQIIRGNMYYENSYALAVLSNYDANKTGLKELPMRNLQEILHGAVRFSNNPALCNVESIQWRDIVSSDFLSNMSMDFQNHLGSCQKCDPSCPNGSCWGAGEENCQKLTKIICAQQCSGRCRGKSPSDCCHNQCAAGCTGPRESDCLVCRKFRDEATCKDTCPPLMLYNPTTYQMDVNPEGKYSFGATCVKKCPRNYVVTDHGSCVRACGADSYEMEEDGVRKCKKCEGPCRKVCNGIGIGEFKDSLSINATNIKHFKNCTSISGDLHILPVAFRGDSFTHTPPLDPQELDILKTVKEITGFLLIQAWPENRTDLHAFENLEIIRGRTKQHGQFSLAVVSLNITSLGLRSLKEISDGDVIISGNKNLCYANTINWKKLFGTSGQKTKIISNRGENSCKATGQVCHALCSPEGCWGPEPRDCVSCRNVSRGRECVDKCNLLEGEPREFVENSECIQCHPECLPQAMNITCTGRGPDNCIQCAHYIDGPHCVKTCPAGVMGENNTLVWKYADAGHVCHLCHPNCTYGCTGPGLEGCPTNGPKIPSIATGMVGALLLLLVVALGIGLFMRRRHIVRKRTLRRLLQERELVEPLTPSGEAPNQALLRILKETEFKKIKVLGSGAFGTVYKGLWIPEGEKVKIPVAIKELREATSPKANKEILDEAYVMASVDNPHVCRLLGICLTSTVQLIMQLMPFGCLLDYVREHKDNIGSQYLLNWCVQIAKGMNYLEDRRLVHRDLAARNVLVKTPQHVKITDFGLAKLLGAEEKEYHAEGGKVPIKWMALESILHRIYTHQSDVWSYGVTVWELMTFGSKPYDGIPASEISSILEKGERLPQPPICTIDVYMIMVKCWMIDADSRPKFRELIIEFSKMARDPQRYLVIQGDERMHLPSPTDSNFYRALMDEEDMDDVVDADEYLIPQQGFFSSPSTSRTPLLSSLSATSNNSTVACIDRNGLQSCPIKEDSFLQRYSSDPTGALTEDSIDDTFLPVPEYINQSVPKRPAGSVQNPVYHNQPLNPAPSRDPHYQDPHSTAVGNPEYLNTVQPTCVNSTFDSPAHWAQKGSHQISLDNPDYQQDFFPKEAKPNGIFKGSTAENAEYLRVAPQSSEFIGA
(§8) 2. Preparation of a Compound Solution
(§9) (1) To the second well of a 96-well plate, 5 μL 10 mM compound (dissolved in DMSO) was added, and 95 μL 100% DMSO was added to prepare 100 μL 0.5 mM compound.
(§10) (2) To other wells, 60 μL 100% DMSO was added. 20 μL compound from the second well was added to the third well, and 4-fold dilution was further performed to get 10 diluted concentrations.
(§11) (3) To the first well and the twelfth well of the 96-well plate, 100 μL 100% DMSO was separately added, and the two wells were used as control wells.
(§12) (4) 10 μL from each well of the 96-well plate was added to another 96-well plate, and 90 μL 1-fold kinase buffer was added.
(§13) (5) 5 μL from the 96-well plate was added to another 384-well plate, for example, transferred from A1 well of the 96-well plate to A1 and A2 wells of the 384-well plate, and transferred from A2 well of the 96-well plate to A3 and A4 wells of the 384-well plate, and so on.
(§14) To 384-well plate, 10 μL 2.5-fold enzyme solution was added, and incubated at room temperature for 10 min.
(§15) (5) Kinase reaction and stop
(§16) After incubation at 28° C. for a period of time (depending on kinase), 25 μL stop solution was added.
(§17) 4. Data on percent conversion was read by Caliper.
(§18) (1) Data on enzyme activity was obtained by Caliper program;
(§19) (2) Inhibition rate of enzyme activity was calculated from the data on enzyme activity by the following formula: Inhibition rate(%)=(maximal value−the measured value of a test compound)/(maximal value-minimal value)×100,
(§20) wherein, the maximal value represents the measured value of DMSO control; and the minimal value represents the measured value of blank control.
(§21) (3) Calculation of IC50 value by XLFit excel.

In a further assay the target is wild-type EGFR (WT EGFR) (Homo sapiens (Human), UniProt P00533). The assay can be described thus: Mobility Shift Assay, in vitro enzyme-inhibiting activity, wild-type EGFR. It counts as biochemical. The note with it: Km ATP. Here is the method:
as §7, §8, §9, §10, §11, §12, §13, §14, §15, §16, §17, §18, §19, §20, §21

A further assay deals with EGFR (d746-750) (Homo sapiens (Human), UniProt P00533, DEL746-750). The assay can be described thus: Mobility Shift Assay, in vitro enzyme-inhibiting activity, EGFR (d746-750). It counts as biochemical. The following applies: Table 5. As to the method:
as §7, §8, §9, §10, §11, §12, §13, §14, §15, §16, §17, §18, §19, §20, §21

The next assay addresses EGFR L858R (Homo sapiens (Human), UniProt P00533, L858R). Nature of the assay: Mobility Shift Assay, in vitro enzyme-inhibiting activity, EGFR L858R. It counts as biochemical. The note with it: Table 5. Here is the method: as §7, §8, §9, §10, §11, §12, §13, §14, §15, §16, §17, §18, §19, §20, §21
A further assay has as its target EGFR T790M-L858R (Homo sapiens (Human), UniProt P00533, L858R/T790M). Nature of the assay: Mobility Shift Assay, in vitro enzyme-inhibiting activity, EGFR T790M-L858R. It counts as biochemical. The following applies: Table 5. As to the method: as §7, §8, §9, §10, §11, §12, §13, §14, §15, §16, §17, §18, §19, §20, §21

wild-type EGFR (WT EGFR), sequence (P00533 25-1210): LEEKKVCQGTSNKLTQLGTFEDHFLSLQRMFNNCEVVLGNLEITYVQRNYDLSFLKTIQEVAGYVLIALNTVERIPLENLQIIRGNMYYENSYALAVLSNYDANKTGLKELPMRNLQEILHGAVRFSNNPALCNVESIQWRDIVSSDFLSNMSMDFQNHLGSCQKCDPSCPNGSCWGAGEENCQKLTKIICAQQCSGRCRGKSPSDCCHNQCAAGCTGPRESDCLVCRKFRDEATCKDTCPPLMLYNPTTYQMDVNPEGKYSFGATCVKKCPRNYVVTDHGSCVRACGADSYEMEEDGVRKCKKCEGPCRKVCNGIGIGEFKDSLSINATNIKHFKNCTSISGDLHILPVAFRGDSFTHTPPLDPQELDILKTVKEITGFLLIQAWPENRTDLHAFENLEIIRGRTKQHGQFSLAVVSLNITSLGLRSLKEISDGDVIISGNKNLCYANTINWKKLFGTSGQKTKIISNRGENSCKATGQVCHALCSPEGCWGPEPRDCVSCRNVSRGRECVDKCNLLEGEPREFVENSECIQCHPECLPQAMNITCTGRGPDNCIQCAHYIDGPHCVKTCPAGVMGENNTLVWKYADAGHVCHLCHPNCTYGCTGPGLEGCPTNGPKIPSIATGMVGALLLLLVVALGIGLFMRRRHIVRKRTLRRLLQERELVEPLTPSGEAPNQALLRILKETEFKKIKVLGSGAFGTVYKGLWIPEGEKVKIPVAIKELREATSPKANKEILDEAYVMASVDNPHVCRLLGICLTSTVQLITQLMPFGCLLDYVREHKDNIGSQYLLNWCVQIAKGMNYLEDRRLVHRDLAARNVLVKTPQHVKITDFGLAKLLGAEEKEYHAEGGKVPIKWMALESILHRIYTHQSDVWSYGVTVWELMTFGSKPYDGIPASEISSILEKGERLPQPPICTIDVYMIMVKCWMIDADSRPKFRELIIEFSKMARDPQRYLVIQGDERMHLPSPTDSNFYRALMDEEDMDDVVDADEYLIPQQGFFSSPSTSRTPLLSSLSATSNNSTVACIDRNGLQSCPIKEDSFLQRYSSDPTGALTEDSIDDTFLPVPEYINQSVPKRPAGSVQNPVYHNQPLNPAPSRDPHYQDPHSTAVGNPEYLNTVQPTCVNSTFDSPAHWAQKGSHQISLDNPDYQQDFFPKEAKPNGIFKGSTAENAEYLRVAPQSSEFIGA
EGFR (d746-750), sequence (P00533 other isoform, or with tags, fused parts or gaps del 1-668/del 746-750 limits assumed): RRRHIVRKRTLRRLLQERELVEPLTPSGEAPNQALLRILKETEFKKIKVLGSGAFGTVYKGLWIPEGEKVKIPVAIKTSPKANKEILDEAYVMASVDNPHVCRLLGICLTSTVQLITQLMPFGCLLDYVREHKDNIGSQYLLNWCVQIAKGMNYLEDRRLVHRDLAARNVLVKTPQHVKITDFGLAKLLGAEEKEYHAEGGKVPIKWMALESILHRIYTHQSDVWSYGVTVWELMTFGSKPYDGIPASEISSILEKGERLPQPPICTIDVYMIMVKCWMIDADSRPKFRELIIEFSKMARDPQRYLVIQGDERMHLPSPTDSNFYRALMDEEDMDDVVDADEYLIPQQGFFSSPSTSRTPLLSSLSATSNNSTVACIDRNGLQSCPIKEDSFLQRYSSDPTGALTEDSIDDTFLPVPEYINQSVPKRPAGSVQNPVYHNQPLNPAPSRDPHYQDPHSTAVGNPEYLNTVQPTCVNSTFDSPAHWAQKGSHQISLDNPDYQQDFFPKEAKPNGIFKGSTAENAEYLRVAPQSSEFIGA
EGFR L858R, sequence (P00533 25-1210 L858R): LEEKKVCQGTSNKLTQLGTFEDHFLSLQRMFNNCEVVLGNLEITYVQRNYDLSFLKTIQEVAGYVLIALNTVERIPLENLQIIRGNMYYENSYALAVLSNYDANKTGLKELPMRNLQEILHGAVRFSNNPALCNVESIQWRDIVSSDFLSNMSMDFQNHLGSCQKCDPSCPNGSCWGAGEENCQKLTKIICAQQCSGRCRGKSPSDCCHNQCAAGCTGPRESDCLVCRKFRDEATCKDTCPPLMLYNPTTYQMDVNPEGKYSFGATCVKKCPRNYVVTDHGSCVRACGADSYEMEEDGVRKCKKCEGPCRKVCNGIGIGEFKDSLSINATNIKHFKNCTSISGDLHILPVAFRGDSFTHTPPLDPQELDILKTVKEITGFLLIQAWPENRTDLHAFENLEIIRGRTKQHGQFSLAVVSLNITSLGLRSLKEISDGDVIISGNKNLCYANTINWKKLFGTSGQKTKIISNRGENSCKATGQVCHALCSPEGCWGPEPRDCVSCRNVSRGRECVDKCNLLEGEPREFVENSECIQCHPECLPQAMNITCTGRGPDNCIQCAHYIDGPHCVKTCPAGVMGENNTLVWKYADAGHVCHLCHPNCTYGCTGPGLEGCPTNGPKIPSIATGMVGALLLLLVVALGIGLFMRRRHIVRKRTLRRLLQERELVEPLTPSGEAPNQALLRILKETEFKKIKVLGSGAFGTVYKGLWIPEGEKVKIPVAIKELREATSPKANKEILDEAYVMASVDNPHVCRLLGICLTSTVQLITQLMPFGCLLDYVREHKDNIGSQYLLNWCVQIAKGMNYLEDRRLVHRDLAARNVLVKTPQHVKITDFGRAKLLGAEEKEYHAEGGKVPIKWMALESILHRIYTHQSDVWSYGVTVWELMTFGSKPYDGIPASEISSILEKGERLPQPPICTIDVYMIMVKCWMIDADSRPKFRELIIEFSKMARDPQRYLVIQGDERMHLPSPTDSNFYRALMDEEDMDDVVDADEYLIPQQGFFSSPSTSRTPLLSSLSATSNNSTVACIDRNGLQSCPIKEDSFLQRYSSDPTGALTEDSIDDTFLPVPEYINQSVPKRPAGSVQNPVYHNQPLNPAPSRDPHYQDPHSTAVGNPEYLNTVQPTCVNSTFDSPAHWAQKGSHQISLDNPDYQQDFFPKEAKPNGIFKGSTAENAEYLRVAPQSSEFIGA

For orientation: IC50 means the concentration at which inhibition is half-maximal. For `C=CC(=O)Nc1cccc(Nc2nc(Nc3ccc(C4CCN(C(=O)CCF)CC4)cc3OC)ncc2C(F)(F)F)c1` [Compound 25, N-(3-((2-((4-(1-(3-fluoropropionyl)piperidin-4-yl)-2-methoxyphenyl)amino)-5-(trifluoromethyl)pyrimidin-4-yl)amino)phenyl)acrylamide], the IC50 in assay [1] (Table 10, unit inferred) worked out at 308 nM; in assay [2] (Table 10, unit inferred) it was 3890 nM; at EGFR T790M (Table 4, unit inferred) it was 7.1 nM; on wild-type EGFR (WT EGFR) (Table 4, unit inferred) it was 683 nM. For the same compound, the “Selectivity (A431/H1975)” value in assay [1] (Table 10) is 12.6. In addition, the “Selectivity (WT/T790M)” value at EGFR T790M (Table 4) is listed as 96.2.
As to `C=CC(=O)Nc1cccc(Nc2nc(Nc3ccc(C4CCN(C5COC5)CC4)cc3OC)ncc2C(F)(F)F)c1` [Compound 41, N-(3-((2-((2-methoxy-4-(1-(oxetan-3-yl)piperidin-4-yl)phenyl)amino)-5-(trifluoromethyl)pyrimidin-4-yl)amino)phenyl)acrylamide], the IC50 in assay [1] (Table 10, unit inferred) amounted to 28.5 nM; in assay [2] (Table 10, unit inferred), 247 nM; at EGFR T790M (Table 4, unit inferred) it was 1.4 nM; at wild-type EGFR (WT EGFR) (Table 4, unit inferred), 82 nM. For the same compound, the “Selectivity (A431/H1975)” value in assay [1] (Table 10) turned out to be 8.6. The “Selectivity (WT/T790M)” value on EGFR T790M (Table 4) was determined as 58.6.
On to `C=CC(=O)Nc1cccc(Nc2nc(Nc3ccc(OCCCS(C)(=O)=O)cc3OC)ncc2C(F)(F)F)c1` [Compound 43, N-(3-((2-((2-methoxy-4-(3-(methylsulfonyl)propoxy)phenyl)amino)-5-(trifluoromethyl)pyrimidin-4-yl)amino)phenyl)acrylamide], for which the IC50 in assay [1] (Table 10, unit inferred) turned out to be 430 nM; in assay [2] (Table 10, unit inferred) it was 2640 nM; at EGFR T790M (Table 4, unit inferred) it was 3.6 nM; at wild-type EGFR (WT EGFR) (Table 4, unit inferred), 159 nM. For the same compound, the “Selectivity (A431/H1975)” value in assay [1] (Table 10) amounted to 6.1. Also, the “Selectivity (WT/T790M)” value at EGFR T790M (Table 4) is recorded as 44.2.
`C=CC(=O)Nc1cccc(Nc2nc(Nc3ccc(N4CCN(C(C)=O)CC4)cc3OC)ncc2C(F)(F)F)n1` [Compound 1, N-(6-((2-((4-(4-acetylpiperazin-1-yl)-2-methoxyphenyl)amino)-5-(trifluoromethyl)pyrimidin-4-yl)amino)pyridin-2-yl)acrylamide]: the IC50 came to 20.3 nM on EGFR (d746-750) (Km ATP); 84.7 nM on EGFR L858R (Km ATP); 54.2 nM in assay [1] (Table 9); 4.4 nM at EGFR T790M-L858R (Km ATP); 448 nM in assay [2] (Table 9); 5.7 nM at EGFR T790M (Table 1). Further, the IC50 on wild-type EGFR (WT EGFR) (Table 1) is 323 nM; on wild-type EGFR (WT EGFR) (Table 5), 240 nM. For the same compound, the “Selectivity WT/d746-750” value on EGFR (d746-750) (ratio of IC50) is 11.8. Further, the “Selectivity WT/L858R” value on EGFR L858R (ratio of IC50) worked out at 2.8. Moreover, in assay [1] (Table 9), the “Selectivity (A431/H1975)” value amounted to 8.3. For the same compound, the “Selectivity WT/T790M-L858R” value at EGFR T790M-L858R (ratio of IC50) is 54.3. Besides, the “Selectivity (WT/T790M)” value on EGFR T790M (Table 1) was found to be 56.7.
For the compound `C=CC(=O)Nc1cccc(Nc2nc(Nc3ccc(C4CCN(C)CC4)cc3OC)ncc2C(F)(F)F)c1` [Compound 29, N-(3-((2-((2-methoxy-4-(1-methylpiperidin-4-yl)phenyl)amino)-5-(trifluoromethyl)pyrimidin-4-yl)amino)phenyl)acrylamide], the IC50 was 22.5 nM in assay [1] (Table 10, unit inferred); 272 nM in assay [2] (Table 10, unit inferred); 0.32 nM at EGFR T790M (Table 4, unit inferred); 11 nM on wild-type EGFR (WT EGFR) (Table 4, unit inferred). In assay [1] (Table 10), the “Selectivity (A431/H1975)” value amounted to 12.1. Moreover, on EGFR T790M (Table 4), the “Selectivity (WT/T790M)” value is recorded as 34.4.
